How the values were obtained:
[1] = xn = mol fraction of the nth substance listed; conditions: 101.3 kPa, Liquid
[2] = excess molar enthalpy (molar enthalpy of mixing); xn = mol fraction of the nth substance listed; conditions: 101.3 kPa, Liquid, Calvet calorimetry

CCOC=O [ethyl methanoate] + CC(C)(C)O
Conditions | excess molar enthalpy [kcal/mol] | excess molar volume [m3/mol]
[1], 303.15 K, x1 = 0.0451 | – | 1.65e-06
[1], 303.15 K, x1 = 0.0901 | – | 3.35e-06
[1], 303.15 K, x1 = 0.1537 | – | 5.06e-06
[1], 303.15 K, x1 = 0.1973 | – | 6.07e-06
[1], 303.15 K, x1 = 0.2481 | – | 7.02e-06
[1], 303.15 K, x1 = 0.2631 | – | 7.32e-06
[1], 303.15 K, x1 = 0.3042 | – | 7.9e-06
[1], 303.15 K, x1 = 0.3255 | – | 8.1e-06
[1], 303.15 K, x1 = 0.3448 | – | 8.3e-06
[1], 303.15 K, x1 = 0.3957 | – | 8.6e-06
[1], 303.15 K, x1 = 0.4411 | – | 8.73e-06
[1], 303.15 K, x1 = 0.4445 | – | 8.75e-06
[1], 303.15 K, x1 = 0.4964 | – | 8.79e-06
[1], 303.15 K, x1 = 0.5013 | – | 8.8e-06
[1], 303.15 K, x1 = 0.5084 | – | 8.78e-06
[1], 303.15 K, x1 = 0.5344 | – | 8.7e-06
[1], 303.15 K, x1 = 0.5515 | – | 8.64e-06
[1], 303.15 K, x1 = 0.5677 | – | 8.58e-06
[1], 303.15 K, x1 = 0.5954 | – | 8.35e-06
[1], 303.15 K, x1 = 0.6467 | – | 7.94e-06
[1], 303.15 K, x1 = 0.6956 | – | 7.42e-06
[1], 303.15 K, x1 = 0.7432 | – | 6.59e-06
[1], 303.15 K, x1 = 0.8016 | – | 5.54e-06
[1], 303.15 K, x1 = 0.8477 | – | 4.63e-06
[1], 303.15 K, x1 = 0.9067 | – | 3.28e-06
[1], 303.15 K, x1 = 0.9465 | – | 2.17e-06
[1], 318.15 K, x1 = 0.1022 | – | 4.09e-06
[1], 318.15 K, x1 = 0.1289 | – | 4.86e-06
[1], 318.15 K, x1 = 0.232 | – | 7.07e-06
[1], 318.15 K, x1 = 0.2909 | – | 7.96e-06
[1], 318.15 K, x1 = 0.3356 | – | 8.41e-06
[1], 318.15 K, x1 = 0.4076 | – | 8.97e-06
[1], 318.15 K, x1 = 0.4696 | – | 9.17e-06
[1], 318.15 K, x1 = 0.4934 | – | 9.19e-06
[1], 318.15 K, x1 = 0.5055 | – | 9.2e-06
[1], 318.15 K, x1 = 0.5111 | – | 9.19e-06
[1], 318.15 K, x1 = 0.5267 | – | 9.13e-06
[1], 318.15 K, x1 = 0.536 | – | 9.09e-06
[1], 318.15 K, x1 = 0.5637 | – | 8.91e-06
[1], 318.15 K, x1 = 0.5859 | – | 8.75e-06
[1], 318.15 K, x1 = 0.639 | – | 8.21e-06
[1], 318.15 K, x1 = 0.6902 | – | 7.6e-06
[1], 318.15 K, x1 = 0.7388 | – | 6.82e-06
[1], 318.15 K, x1 = 0.7922 | – | 5.79e-06
[1], 318.15 K, x1 = 0.8429 | – | 4.71e-06
[1], 318.15 K, x1 = 0.8913 | – | 3.45e-06
[1], 318.15 K, x1 = 0.9414 | – | 2.04e-06
[2], 299.15 K, x1 = 0.0689 | 0.141 | –
[2], 299.15 K, x1 = 0.1401 | 0.254 | –
[2], 299.15 K, x1 = 0.2146 | 0.354 | –
[2], 299.15 K, x1 = 0.2869 | 0.43 | –
[2], 299.15 K, x1 = 0.3549 | 0.478 | –
[2], 299.15 K, x1 = 0.4172 | 0.506 | –
[2], 299.15 K, x1 = 0.4738 | 0.518 | –
[2], 299.15 K, x1 = 0.5242 | 0.517 | –
[2], 299.15 K, x1 = 0.5696 | 0.515 | –
[2], 299.15 K, x1 = 0.571 | 0.511 | –
[2], 299.15 K, x1 = 0.6322 | 0.489 | –
[2], 299.15 K, x1 = 0.6996 | 0.447 | –
[2], 299.15 K, x1 = 0.7701 | 0.384 | –
[2], 299.15 K, x1 = 0.8357 | 0.301 | –
[2], 299.15 K, x1 = 0.8964 | 0.213 | –
[2], 299.15 K, x1 = 0.9485 | 0.108 | –
[2], 318.15 K, x1 = 0.0612 | 0.124 | –
[2], 318.15 K, x1 = 0.1263 | 0.219 | –
[2], 318.15 K, x1 = 0.2016 | 0.326 | –
[2], 318.15 K, x1 = 0.2725 | 0.4 | –
[2], 318.15 K, x1 = 0.3389 | 0.443 | –
[2], 318.15 K, x1 = 0.3986 | 0.471 | –
[2], 318.15 K, x1 = 0.4509 | 0.485 | –
[2], 318.15 K, x1 = 0.4911 | 0.489 | –
[2], 318.15 K, x1 = 0.511 | 0.49 | –
[2], 318.15 K, x1 = 0.5304 | 0.49 | –
[2], 318.15 K, x1 = 0.5696 | 0.484 | –
[2], 318.15 K, x1 = 0.6207 | 0.475 | –
[2], 318.15 K, x1 = 0.6806 | 0.449 | –
[2], 318.15 K, x1 = 0.7292 | 0.417 | –
[2], 318.15 K, x1 = 0.786 | 0.37 | –
[2], 318.15 K, x1 = 0.8292 | 0.322 | –
[2], 318.15 K, x1 = 0.8754 | 0.261 | –
[2], 318.15 K, x1 = 0.9191 | 0.192 | –
[2], 318.15 K, x1 = 0.9757 | 0.0729 | –

Source: the NIST ThermoML archive (doi:10.1021/je0202073)
